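At the GI50, growth is halved. TGI denotes the concentration required for complete inhibition of growth.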
Assays:
Assay in all cases: NCI tumour cell line growth inhibition, 384-well format
[1] = test system: SK-MEL-5 melanoma
[2] = test system: M14 melanoma
[3] = test system: HCT-15 colon
[4] = test system: NCI-H522 lung
[5] = test system: NCI-H23 lung
[6] = test system: HT29 colon
[7] = test system: NCI-H226 lung
[8] = test system: PC-3 prostate
[9] = test system: NCI/ADR-RES ovarian
[10] = test system: OVCAR-8 ovarian
[11] = test system: CCRF-CEM leukemia
[12] = test system: 786-0 renal
[13] = test system: HCC-2998 colon
[14] = test system: NCI-H460 NSCLC
[15] = test system: HL-60(TB) leukemia
[16] = test system: TK-10 renal
[17] = test system: SNB-75 CNS
[18] = test system: K-562 leukemia
[19] = test system: HOP-62 NSCLC
[20] = test system: SNB-19 CNS
[21] = test system: A549 NSCLC
[22] = test system: SF-268 CNS
[23] = test system: OVCAR-5 ovarian
[24] = test system: SK-MEL-2 melanoma
[25] = test system: RXF 393 renal
[26] = test system: MDA-MB-435 melanoma
[27] = test system: SF-539 CNS
[28] = test system: UACC-257 melanoma
[29] = test system: MOLT-4 leukemia
[30] = test system: SF-295 CNS
[31] = test system: T-47D breast
[32] = test system: OVCAR-4 ovarian
[33] = test system: DU-145 prostate
[34] = test system: COLO 205 colon
[35] = test system: U251 glioblastoma
[36] = test system: MCF7 breast
[37] = test system: A498 renal
[38] = test system: KM12 colon
[39] = test system: MDA-MB-231 breast
[40] = test system: SK-MEL-28 melanoma
[41] = test system: MALME-3M melanoma
[42] = test system: RPMI-8226 leukemia
[43] = test system: HOP-92 NSCLC
[44] = test system: LOX IMVI melanoma
[45] = test system: UACC-62 melanoma
[46] = test system: SK-OV-3 ovarian
[47] = test system: IGROV1 ovarian

CS(=O)(=O)CCNCc1ccc(-c2ccc3ncnc(Nc4ccc(OCc5cccc(F)c5)c(Cl)c4)c3c2)o1
GI50 [1]: 1770 nM | TGI [1]: 3160 nM | GI50 [2]: 1930 nM | TGI [2]: 3350 nM | GI50 [3]: 1450 nM | TGI [3]: 2790 nM | GI50 [4]: 102 nM | TGI [4]: 1480 nM | GI50 [5]: 2070 nM | TGI [5]: 4070 nM | GI50 [6]: 1850 nM | TGI [6]: 3270 nM | GI50 [7]: 2120 nM | TGI [7]: 4750 nM | GI50 [8]: 1750 nM | TGI [8]: 3280 nM | GI50 [9]: 1560 nM | TGI [9]: 3470 nM | GI50 [10]: 1720 nM | TGI [10]: 3730 nM | GI50 [11]: 1680 nM | TGI [11]: 3050 nM | GI50 [12]: 1340 nM | TGI [12]: 2620 nM | GI50 [13]: 1810 nM | TGI [13]: 3220 nM | GI50 [14]: 1860 nM | TGI [14]: 3290 nM | GI50 [15]: 2260 nM | TGI [15]: 3730 nM | GI50 [16]: 644 nM | TGI [16]: 4500 nM | GI50 [17]: 2280 nM | TGI [17]: 5280 nM | GI50 [18]: 1690 nM | TGI [18]: 3070 nM | GI50 [19]: 2300 nM | TGI [19]: 4950 nM | GI50 [20]: 4430 nM | TGI [20]: 9080 nM | GI50 [21]: 1360 nM | TGI [21]: 2690 nM | GI50 [22]: 2630 nM | TGI [22]: 6970 nM | GI50 [23]: 2740 nM | TGI [23]: 7500 nM | GI50 [24]: 1600 nM | TGI [24]: 2960 nM | GI50 [25]: 1460 nM | TGI [25]: 2790 nM | GI50 [26]: 4970 nM | TGI [26]: 9250 nM | GI50 [27]: 1820 nM | TGI [27]: 3220 nM | GI50 [28]: 1990 nM | TGI [28]: 3420 nM | GI50 [29]: 1490 nM | TGI [29]: 2820 nM | GI50 [30]: 1960 nM | TGI [30]: 3850 nM | GI50 [31]: 605 nM | TGI [31]: 5690 nM | GI50 [32]: 1720 nM | TGI [32]: 3190 nM | GI50 [33]: 1390 nM | TGI [33]: 3380 nM | GI50 [34]: 3780 nM | TGI [34]: 9050 nM | GI50 [35]: 1840 nM | TGI [35]: 3350 nM | GI50 [36]: 1670 nM | TGI [36]: 3060 nM | GI50 [37]: 1260 nM | TGI [37]: 2520 nM | GI50 [38]: 2210 nM | TGI [38]: 3720 nM | GI50 [39]: 1930 nM | TGI [39]: 3400 nM | GI50 [40]: 1800 nM | TGI [40]: 3210 nM | GI50 [41]: 1830 nM | TGI [41]: 3230 nM | GI50 [42]: 1850 nM | TGI [42]: 3250 nM | GI50 [43]: 1370 nM | TGI [43]: 2680 nM | GI50 [44]: 1800 nM | TGI [44]: 3210 nM | GI50 [45]: 1950 nM | TGI [45]: 3430 nM | GI50 [46]: 785 nM | TGI [46]: 5170 nM | GI50 [47]: 751 nM | TGI [47]: 2870 nM

Reference: PubChem BioAssay (NCI)
